This is an account of results in patent publication US20050282910A1, “Methods of application of chemical compounds having therapeutic activities in treating cancers” (priority 2003, published 2005).

≈ marks a conversion by molar mass, not a printed value. Read-outs that look alike come from different tables or passages of the source.

One series has as its system HL60/adr. Nature of the series: Reversal of MRP1-mediated drug resistance, MTT cytotoxicity of anticancer agents. Conditions: for IC50: Homo sapiens, HL60/ADR, 72 h. Type of series: cell-based, human. The protocol: Assays were carried out in triplicate against MDR cancer cell HL60/adr. MTT assays as described previously (X.
The next series concerns the target T1, MRP1 (Homo sapiens, UniProt P33527).
T1 construct: human cancer cell line HL60/adr, an MDR cell line characterized by MRP1 overexpression; endogenous in cells; host or cells: HL60/adr (human MDR cancer cell line)
Nature of the series: Daunorubicin accumulation in HL60/adr cells (MRP1-mediated drug efflux), flow cytometry. Type of series: cell-based. Conditions: 2 μg/ml daunorubicin; 60 minutes; FIG. 7. The source says: MRP1 functions as a drug pump that unilaterally pumps the anticancer agents out of MDR cancer cells. Inhibition of MRP1 results in an increase of intracellular drug concentration within cancer cells.

Series [1] relates to human leukemia MDR cell line K562/adr. Nature of the series: Reversal of P-glycoprotein-mediated drug resistance by Schisandrin A, Schisandrol A, Schisantherin A, MTT cytotoxicity of anticancer agents. Type of series: cell-based. Conditions: for IC50: Homo sapiens, K562/Adr, 72 h. The protocol:
Assays were carried out in triplicate against human leukemia MDR cell line K562/adr, human breast cancer MDR cell line MCF7/adr, and human epidermoid carcinoma MDR cell line KBv200.

A further series concerns the target P-glycoprotein (Homo sapiens, UniProt P08183). Description: Daunorubicin accumulation in MCF7/adr cells (P-glycoprotein-mediated drug efflux), flow cytometry. Type of series: cell-based. The following applies: 2 μg/ml daunorubicin; 0, 1, 10, 20, 40, and 80 μg/ml compound; 60 minutes; FIG. 5. The protocol:
P-glycoprotein functions as a drug pump that unilaterally pumps the anticancer agents out of MDR cancer cells. Inhibition of P-glycoprotein results in an increase of the intracellular drug concentration within cancer cells. […] Cells were collected at 60 minutes after incubation.
On the technique in general: Flow cytometry measures light scatter and fluorescence of single cells or particles in a stream.

The next series relates to SMMC7721. Nature of the series: Enhancement of anticancer agent-induced apoptosis and necrosis, Anexin V-FITC/PI. Format: cell-based, human. The following applies: SMMC7721; vincristine 0.5 μg/ml, Schisandrin B 20 μg/ml; 48 hours. As to the method:
To illustrate the activities of Schisandrin B or its analogs enhancing the apoptosis of cancer cells induced by an anticancer agent according to the present disclosure, human cancer cell line SMMC7721, a non-drug-resistant hepatic cancer cell line, and MCF7, a non-drug-resistant breast cancer cell line, were selected for use. Assays were carried out in triplicates against SMMC7721 or MCF7. […] Cells were collected and the apoptotic cells and necrotic cell percentages were determined using Anexin V-FITC/PI kit (Sigma, St. Louis, Mo., USA) according to manufacturer's instructions. Alternatively, the apoptotic and necrotic cell percentages were measured using DNA Plus kit (Becton-Dickinson, USA) according to the manufacturer's instructions.

Series [2] deals with human breast cancer MDR cell line MCF7/adr. Description: cells. Conditions: NCI/ADR-RES, 72 h.
Series [3] relates to human epidermoid carcinoma MDR cell line KBv200.
The test system is the same in series [4]. Description: cells. Conditions: KBv200, 72 h.
The test system of a further series is K562/adr. Description: Reversal of drug resistance by ethanol extracts of Schisandra chinensis fruit, MTT cytotoxicity of anticancer agents. Type of series: cell-based, human. The protocol:
Assays were carried out in triplicate against human MDR cancer cell lines K562/adr, KBv200, and MCF7/adr. […] Alternatively, flow cytometry assays using FACS Calibur equipped with software Cellquest 3.1f (Becton-Dickinson, Holbrook, N.J.) were applied to count the cell numbers in each sample.

The test system of the next series is KBv200. The description is as above.
Series [5] concerns human breast cancer MDR cell line MCF7/adr.
The next series concerns MCF7/adr. Description: Reversal of drug resistance by ethanol extracts of Schisandra chinensis fruit, MTT cytotoxicity of anticancer agents.
[6] abbreviates: read-out: IC50 (ng/ml) −Schisandrin A.
Setting [7] is: read-out: IC50 (ng/ml) −Schisantherin A.
[8] abbreviates: anticancer agent in the presence of Schisandrin A (10 μg/ml), 72 hours.
Setting [9] is: anticancer agent in the presence of Schisantherin A (10 μg/ml), 72 hours.

T1 sequence (P33527 whole entry): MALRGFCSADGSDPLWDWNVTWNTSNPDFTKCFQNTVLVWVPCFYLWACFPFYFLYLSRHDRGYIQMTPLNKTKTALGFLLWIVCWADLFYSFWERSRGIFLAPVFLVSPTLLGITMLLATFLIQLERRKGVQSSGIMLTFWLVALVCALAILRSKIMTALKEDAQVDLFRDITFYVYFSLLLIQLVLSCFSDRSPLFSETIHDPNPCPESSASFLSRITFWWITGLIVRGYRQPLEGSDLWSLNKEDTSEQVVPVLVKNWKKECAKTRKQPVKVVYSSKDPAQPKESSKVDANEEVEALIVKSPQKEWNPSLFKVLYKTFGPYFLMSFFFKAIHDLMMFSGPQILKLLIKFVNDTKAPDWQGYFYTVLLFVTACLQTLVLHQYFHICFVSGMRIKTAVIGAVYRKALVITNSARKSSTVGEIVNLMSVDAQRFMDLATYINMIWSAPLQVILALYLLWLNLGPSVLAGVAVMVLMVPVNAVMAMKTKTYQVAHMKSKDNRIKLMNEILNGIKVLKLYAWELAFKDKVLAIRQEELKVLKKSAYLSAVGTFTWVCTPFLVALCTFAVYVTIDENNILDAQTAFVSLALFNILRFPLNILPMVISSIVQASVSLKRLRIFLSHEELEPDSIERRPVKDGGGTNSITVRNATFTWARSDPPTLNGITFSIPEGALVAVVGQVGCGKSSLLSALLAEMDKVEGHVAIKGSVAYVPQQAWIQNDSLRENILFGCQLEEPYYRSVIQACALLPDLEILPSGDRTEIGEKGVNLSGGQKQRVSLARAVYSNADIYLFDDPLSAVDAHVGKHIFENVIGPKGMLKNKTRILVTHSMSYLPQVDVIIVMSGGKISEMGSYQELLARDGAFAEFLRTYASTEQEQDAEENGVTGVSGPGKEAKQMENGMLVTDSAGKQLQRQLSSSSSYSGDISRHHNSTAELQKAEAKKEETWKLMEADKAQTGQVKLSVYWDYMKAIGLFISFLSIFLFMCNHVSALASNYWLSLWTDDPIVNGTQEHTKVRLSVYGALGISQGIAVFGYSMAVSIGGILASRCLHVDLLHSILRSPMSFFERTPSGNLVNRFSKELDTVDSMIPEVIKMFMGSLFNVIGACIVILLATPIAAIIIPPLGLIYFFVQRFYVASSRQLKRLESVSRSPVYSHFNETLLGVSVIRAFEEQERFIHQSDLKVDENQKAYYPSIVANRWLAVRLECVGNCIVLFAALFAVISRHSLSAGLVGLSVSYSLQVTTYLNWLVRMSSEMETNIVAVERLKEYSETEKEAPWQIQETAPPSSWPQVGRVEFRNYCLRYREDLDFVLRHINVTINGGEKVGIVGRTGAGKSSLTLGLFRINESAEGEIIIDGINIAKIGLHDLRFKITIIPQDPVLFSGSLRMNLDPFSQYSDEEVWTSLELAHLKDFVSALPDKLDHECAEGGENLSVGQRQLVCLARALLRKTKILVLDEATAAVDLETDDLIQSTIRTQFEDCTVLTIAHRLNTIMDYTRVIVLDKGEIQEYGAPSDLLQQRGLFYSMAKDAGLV
Sequence of P-glycoprotein (P08183 whole entry): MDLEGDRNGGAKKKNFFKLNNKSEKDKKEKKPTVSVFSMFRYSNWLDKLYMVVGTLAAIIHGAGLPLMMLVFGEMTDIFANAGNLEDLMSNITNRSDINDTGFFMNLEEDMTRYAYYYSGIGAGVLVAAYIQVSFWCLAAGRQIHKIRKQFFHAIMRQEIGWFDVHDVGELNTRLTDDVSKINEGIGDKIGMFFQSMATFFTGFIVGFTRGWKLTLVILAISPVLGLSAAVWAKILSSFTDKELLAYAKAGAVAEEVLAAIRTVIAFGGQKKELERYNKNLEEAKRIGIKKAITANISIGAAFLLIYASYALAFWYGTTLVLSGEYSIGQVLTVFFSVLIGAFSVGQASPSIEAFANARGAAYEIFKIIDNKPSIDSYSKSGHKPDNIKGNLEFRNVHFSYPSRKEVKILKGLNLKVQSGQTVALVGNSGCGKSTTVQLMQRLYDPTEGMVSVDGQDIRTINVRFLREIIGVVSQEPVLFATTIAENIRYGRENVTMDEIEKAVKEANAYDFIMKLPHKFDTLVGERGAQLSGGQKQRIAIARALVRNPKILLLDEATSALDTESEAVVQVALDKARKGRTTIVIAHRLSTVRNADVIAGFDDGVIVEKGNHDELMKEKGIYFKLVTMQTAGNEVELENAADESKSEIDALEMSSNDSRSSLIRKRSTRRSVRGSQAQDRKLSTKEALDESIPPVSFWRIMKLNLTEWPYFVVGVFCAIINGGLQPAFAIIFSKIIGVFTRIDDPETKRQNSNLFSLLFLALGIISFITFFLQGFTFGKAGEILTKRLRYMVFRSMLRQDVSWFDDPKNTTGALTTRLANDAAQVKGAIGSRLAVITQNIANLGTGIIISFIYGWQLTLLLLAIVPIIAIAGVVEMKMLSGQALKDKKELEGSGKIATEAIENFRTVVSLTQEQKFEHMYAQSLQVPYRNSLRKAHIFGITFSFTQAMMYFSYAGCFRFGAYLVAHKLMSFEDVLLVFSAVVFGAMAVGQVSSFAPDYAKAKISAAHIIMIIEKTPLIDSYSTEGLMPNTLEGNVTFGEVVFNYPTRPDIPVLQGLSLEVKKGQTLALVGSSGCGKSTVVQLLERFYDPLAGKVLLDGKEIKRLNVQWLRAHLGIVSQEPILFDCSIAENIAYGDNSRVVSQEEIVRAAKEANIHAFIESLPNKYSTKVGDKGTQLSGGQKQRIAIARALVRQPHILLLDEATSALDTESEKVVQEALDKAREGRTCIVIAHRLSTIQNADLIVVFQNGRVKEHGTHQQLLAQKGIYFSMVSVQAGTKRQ

As for `COc1cc2c(c(OC)c1OC)-c1c(cc3c(c1OC)OCO3)C[C@H](C)[C@](C)(O)[C@H]2OC(=O)c1ccccc1` [Schisantherin A], in the series with HL60/adr (compound 10 μg/ml), the “drug sensitivity of HL60/adr toward the anticancer agents (in words)” value is “enhanced”. Further, the “daunorubicin accumulation within HL60/adr cells (in words)” value on MRP1 is given as “increased with the increasing concentration”. The “sensitivity of MDR cancer cell K562/adr to daunorubicin (in words)” value in [1] (FIG. 3) is given as “increase the sensitivity”. Further, the “accumulation of daunorubicin within MCF7/adr cells (in words)” value at P-glycoprotein is on record as “proportionately correlated with the increment of the concentration”.

For the compound `CC[C@]1(O)C[C@H]2CN(CCc3c([nH]c4ccccc34)[C@@](C(=O)OC)(c3cc4c(cc3OC)N(C=O)[C@H]3[C@@](O)(C(=O)OC)[C@H](OC(C)=O)[C@]5(CC)C=CCN6CC[C@]43[C@@H]65)C2)C1` [Vincristine], the “Apoptotic + necrotic (%)” value in the series with SMMC7721 came out at 6.1 ± 0.4%. In addition, the IC50 worked out at 501 ± 129 ng/mL (≈ 0.607 µM) in [2] (setting [6]); 501 ± 109 ng/mL (≈ 0.607 µM) in series [2] (setting [7]); 22.5 ± 3.2 ng/mL (≈ 0.0273 µM) in series [4] (setting [6]); 22.5 ± 5.6 ng/mL (≈ 0.0273 µM) in series [4] (setting [7]); 870 ± 230 ng/mL in the series with K562/adr (Homo sapiens, anticancer agent in the absence of ethanol extracts, 72 hours, read-out: IC50 (ng/ml) −ethanol extract); 89 ± 21 ng/mL in the series on HL60/adr (HL60/adr, anticancer agent in the absence of Schisandrin A, 72 hours, read-out: IC50 (ng/ml) −Schisandrin A). Moreover, the IC50 stood at 48 ± 12 ng/mL in the series with HL60/adr (HL60/adr, anticancer agent in the absence of Schisandrin B, 72 hours, read-out: IC50 (ng/ml) −Schisandrin B); 89.1 ± 21 ng/mL in the series with HL60/adr (HL60/adr, anticancer agent in the absence of Schisantherin A, 72 hours, read-out: IC50 (ng/ml) −Schisantherin A); 42 ± 1 ng/mL with HL60/adr (HL60/adr, vincristine in the absence of Schisandrin B, 72 hours, read-out: IC50 (ng/ml) −Schisandrin B); 612 ± 176 ng/mL in series [1] (K562/adr, anticancer agent in the absence of Schisandrin A, 72 hours, read-out: IC50 (ng/ml) −Schisandrin A); 612 ± 158 ng/mL in [1] (K562/adr, anticancer agent in the absence of Schisantherin A, 72 hours, read-out: IC50 (ng/ml) −Schisantherin A); 42 ± 14 ng/mL in the series with KBv200 (Homo sapiens, KBv200, 72 h, read-out: IC50 (ng/ml) −ethanol extract). The IC50 with MCF7/adr (Homo sapiens, NCI/ADR-RES, 72 h, read-out: IC50 (ng/ml) −ethanol extract) was 490 ± 112 ng/mL. The “IC50 (ng/ml) +Schisandrin A” value was 2.95 ± 0.7 ng/mL in [3] (setting [8]); 3.3 ± 0.9 ng/mL in the series with HL60/adr (HL60/adr, anticancer agent in the presence of Schisandrin A (10 μg/ml), 72 hours); 7.3 ± 2.1 ng/mL in [1] (K562/adr, anticancer agent in the presence of Schisandrin A (10 μg/ml), 72 hours); 8.4 ± 2.3 ng/mL in [5] (setting [8]). In addition, the “IC50 (ng/ml) +Schisantherin A” value in series [3] (setting [9]) worked out at 3.7 ± 0.9 ng/mL; with HL60/adr (HL60/adr, anticancer agent in the presence of Schisantherin A (10 μg/ml), 72 hours), 3.9 ± 0.9 ng/mL; in series [1] (K562/adr, anticancer agent in the presence of Schisantherin A (10 μg/ml), 72 hours), 7.7 ± 2.1 ng/mL; in series [5] (setting [9]), 24.1 ± 9.2 ng/mL. The “RF (reversal folds of drug resistance)” value in [3] (by Schisandrin A (10 μg/ml)) was 7.6; in [3] (by Schisantherin A (10 μg/ml)), 6.1; with K562/adr (by ethanol extracts (50 μg/ml)), 7.9; in the series on HL60/adr (HL60/adr, by Schisandrin A (10 μg/ml)) it was 27.0; in the series with HL60/adr (HL60/adr, by Schisandrin B (10 μg/ml)), above 48; with HL60/adr (HL60/adr, by Schisantherin A (10 μg/ml)), 22.8. Moreover, the “RF (reversal folds of drug resistance)” value in series [1] (K562/adr, by Schisandrin A (10 μg/ml)) was found to be 83.8; in [1] (K562/adr, by Schisantherin A (10 μg/ml)), 79.5; with KBv200 (KBv200, by ethanol extracts (50 μg/ml)) it was 13.5; in [5] (by Schisandrin A (10 μg/ml)) it was 59.6; in [5] (by Schisantherin A (10 μg/ml)), 20.9; in the series on MCF7/adr (MCF7/adr, by ethanol extracts (50 μg/ml)), 2.3. Moreover, the “IC50 (ng/ml) +ethanol extract” value in the series with K562/adr (anticancer agent in the presence of ethanol extracts (50 μg/ml), 72 hours) is 110 ± 42 ng/mL; in the series on MCF7/adr (MCF7/adr, anticancer agent in the presence of ethanol extracts (50 μg/ml), 72 hours), 210 ± 32 ng/mL. For the same compound, the “IC50 (ng/ml) +Schisandrin B” value with HL60/adr (HL60/adr, anticancer agent in the presence of Schisandrin B (10 μg/ml), 72 hours) was below 1 ng/mL; in the series on HL60/adr (HL60/adr, vincristine in the presence of Schisandrin B 5 μg/ml, 72 hours) it was 5 ± 1 ng/mL; with HL60/adr (HL60/adr, vincristine in the presence of Schisandrin B 10 μg/ml, 72 hours) it was 4 ± 2 ng/mL; with HL60/adr (HL60/adr, vincristine in the presence of Schisandrin B 20 μg/ml, 72 hours), below 1 ng/mL.
